From paper PMC10535741, “Styrylpyridinium Derivatives for Fluorescent Cell Imaging” (Pharmaceuticals, 2023) come the findings set out here.

Each structure is given as a SMILES string. Several values for one entry are separate records, joined by “and”; a condition that tells them apart may be missing. Equal entries are not always repeated. Where two headings read alike, the source gives them in different places.

The test system of series [1] is MH-22A (mouse hepatocarcinoma). In words: MTT cytotoxicity assay, MH-22A. The class given is cell-based. The conditions noted are these: for IC50: Mus musculus, read-out: IC50 (µg/mL) MH-22A. The procedure:
The evaluation of the in vitro cytotoxicity (IC50, half maximal inhibitory concentration) of the abovementioned compounds and their structural derivatives was assessed using the standard colorimetric 3-(4,5-dimethylthiazol-2-yl)-2,5-diphenyltetrazolium bromide (MTT) assay on two monolayer tumour cell lines, namely HT-1080 (human connective tissue fibrosarcoma) and MH-22A (mouse hepatocarcinoma). Additionally, the impact of the compound on non-cancerous “normal” cells—mouse fibroblasts (NIH3T3)—was estimated in order to measure the basal toxicity (LD50, median lethal dose). The obtained results were used for investigation of the structure–activity relationships and exploration of the effect of substituents on cellular response and toxicity. The estimated LD50 gives information regarding the compound properties and could potentially be used to select promising compounds by providing a starting dose for in vivo experiments.
The HT-1080 (human connective tissue fibrosarcoma, ATCC® CCL-121™), MH-22A (mouse hepatocarcinoma, ECACC Cat. No. 96121721), A-549 (human lung carcinoma, ATCC® CCL-185™), NIH3T3 (Swiss Albino mouse embryo fibroblast, ECACC Cat. No. 93061524), Hek293 (human embryonic kidney, ATCC® CRL-1573™), BHK-21 (Syrian hamster kidney, ATCC® CCL-10™), A-431 (human epidermoid carcinoma, ATCC® CRL-1555™), Saos-2 (human osteosarcoma, ATCC® HTB-85™), HeLa (human epitheloid cervix carcinoma, ATCC® CCL-2™), U937 (human myeloid leukaemia, ATCC® CRL-1593.2™), C6 (rat glioma, ATCC® CCL-107™), and B16-F10 (murine melanoma, ATCC® CRL-6475™) cell lines were obtained from the American Type Culture Collection (ATCC) and European Collection of Authenticated Cell Cultures (ECACC).
HT-1080, MH-22A, A-549, NIH3T3, BHK-21, A-431, HeLa, and B16-F10 cells were cultured in Dulbecco’s Modified Eagle’s Medium (DMEM) with 2 mM glutamine and 10% foetal bovine serum (FBS). Hek293 cells were cultured in Eagle’s Minimum Essential Medium with 10% foetal bovine serum. U937 cells were cultured in RPMI-1640 Medium with 2 mM glutamine and 10% foetal bovine serum. C6 cells were cultured in Ham’s F12 Medium with 2 mM glutamine and 10% foetal bovine serum. Saos-2 cells were cultured in McCoy’s 5a Medium with 2 mM glutamine and 10% foetal bovine serum. The cells were incubated at 37 °C with 5% CO2, 95% air, and complete humidity. Once ~90% confluence was reached, they were detached using 0.05% trypsin/EDTA and counted. The cells were plated at optimally determined densities for the logarithmic phase of growth. These cells were then suspended at a concentration of 4000 cells/well for HT-1080, MH-22A, A-549, NIH3T3, BHK-21, A-431, HeLa, B16-F10, Hek293, and Saos-2 cells and a concentration of 9000 cells/well for U937, C6, Hek293, and GM08402 cells and added onto a 96-well plate. For background absorption, some wells remained cell free, i.e., as a blank control. Cells were incubated for 72 h at 37 °C and 5% CO2 where they were exposed to a media containing serial dilutions of the investigated compounds (n = 3). Cell viability was measured using the 3-(4,5-dimethylthiazol-2-yl)-2,5-diphenyl-tetrazolium bromide (MTT) assay. In brief, after incubating with compounds, the culture medium was removed and fresh medium with 0.2 mg/mL MTT was added to each well of the plate. After incubation (3 h, 37 °C, 5% CO2), the medium with MTT solution was removed and replaced with 200 µL DMSO and 25 µL Sorenson’s glycine buffer (glycine 0.1 M, NaCl 0.1 M, pH: 10.5 with 0.1 M NaOH). The plate was shaken for 15 min at room temperature and the optical density (OD) of the wells was determined using a multichannel spectrophotometer (Thermo Scientific Multiskan EX) at 540 nm. The quantity of the control cells was taken in calculations as 100%. The IC50 value was calculated using the program Graph Pad Prism® 3.0.

The nature of series [2]: Excitation/emission fluorescence spectra. Type of series: physicochemical. The conditions noted are these: for fluor. max. λ, nm / excitation λ, nm: DMSO solution; for excitation λ, nm: excitation giving maximum fluorescence intensity; for Stokes' shift, nm: DMSO. On the procedure:
The resonance structures of compounds 6d,e (Figure 2a) show a possibly intramolecular charge transfer between the julolidine moiety and the pyridinium unit. The normalised fluorescence spectra of the tested compounds 6a–e and 7a,b in DMSO solution (Figure 2c) and the fluorescence spectra of compound 6e in various media (Figure 2d) were measured using a spectrophotometer multiplate reader (Infinite M1000). The UV/Vis spectra in DMSO solution of compounds 6a–g (Figure 2b) were reordered with a UV/Vis spectrophotometer, and the fluorescence spectra of compound 6e in EtOH–glycerol mixtures (Figure 2e) were collected with a Spectrofluorometer FS5.
According to the calculations, the excitation occurs at 542 nm and the emission at 765 nm. The obtained theoretical calculation data are in good agreement with the experimental data, where the excitation occurs at 530 nm and the emission at 760 nm (Table 3).
We have also tested whether the characteristics of compound 6e depended upon the viscosity of its surrounding environment. […] It was underlined that water media reduced the fluorescence quantum yields and the lifetime of organic fluorophores by up to threefold. […] In pure glycerol, the maximum value of fluorescence was detected at 645 nm. As the amount of glycerol decreased, the fluorescence intensity of the sample decreased as well. The second fluorescence maximum at 720 nm was observed when the amount of ethanol had reached approximately 50% in the composition.
A concentration of 10 mM stock solution of compounds 6 or 7 was prepared by dissolving the compounds in DMSO. Working solutions were prepared by diluting the 10 mM stock solution of compounds with different solvents to reach the final concentration for the samples: DMSO (compound concentration 0.1 mM); for compound 6e: in glycerol (concentration 0.01 mM), in water (concentration 0.5 mM), in 0.1 M HCl (concentration 0.5 mM), in 0.1 M NaOH (concentration 0.5 mM), or in 1% DMSO/99% water (concentration […]). The fluorescence spectra were measured using a spectrophotometer multiplate reader (Tecan Infinite M1000; Tecan Austria GmbH, Salzburg, Austria). For excitation/emission fluorescence spectra measurements, the following measurement parameters were applied: excitation wavelength from 260 nm to 690 nm with a 10 nm sampling interval and emission wavelength from 300 nm to 840 nm with a 10 nm sampling interval. The fluorescence spectra of compound 6e (concentration 5 mM) in EtOH–glycerol mixtures were measured with an Edinburgh Instruments FS5 Spectrofluorometer (Edinburgh Instruments Ltd., Kirkton Campus, UK). The data were analysed using Microsoft Excel software version 2308.

Turning to `CCCCCCCCCCCC[n+]1ccc(C=Cc2cc(OC)c(OC)c(OC)c2)cc1.[Br-]` [Compound 6a, 4-(3,4,5-trimethoxystyryl)-N-dodecylpyridinium bromide], the “times more toxic than 6b in MH-22A” value in series [1] (6a versus 6b) came to 2.4 times. Further, the IC50 in series [1] (72 h treatment, MTT) stood at 0.45 ± 0.08 µg/mL. In series [1] (ratio of IC50 values), the “times lower cytotoxicity of 6a compared with 6d, MH-22A” value stood at 8.5 times. Also, in series [2], the “fluor. max. λ, nm” value came out at 580 nm and the “excitation λ, nm” value turned out to be 380 nm.

`CCCCCCCCCCCCCCCC[n+]1ccc(C=Cc2cc(OC)c(OC)c(OC)c2)cc1.[Br-]` [Compound 6b]: the “IC50 (µg/mL) MH-22A” value in series [1] (72 h treatment, MTT) is 1.08 ± 0.06 µg/mL. Also, in series [2], the “fluor. max. λ, nm” value is on record as 580 nm and the “excitation λ, nm” value came to 380 nm.

On to `CCCCCCCCCCCCCCCC[n+]1ccc(C=CC=Cc2ccc(OC)cc2)cc1.[Br-]` [Compound 6c, 1-hexadecyl-4-(4-(4-methoxyphenyl)buta-1,3-dien-1-yl)pyridin-1-ium bromide], for which the IC50 in series [1] (72 h treatment, MTT) came to 0.13 ± 0.03 µg/mL. Moreover, in series [2], the “Stokes' shift, nm” value stood at 352 nm; the “fluor. max. λ, nm” value was 760 nm and ~ 760 nm; the “excitation λ, nm” value came to 530 nm.

On to `CCCCCCCCCCCC[n+]1ccc(C=Cc2cc3c4c(c2)CCCN4CCC3)cc1.[Br-]` [Compound 6d, 1-dodecyl-4-(2-(2,3,6,7-tetrahydro-1H,5H-pyrido[3,2,1-ij]quinolin-9-yl)vinyl)pyridin-1-ium bromide], for which the “times higher cytotoxicity towards MH-22A than compound 7a” value in series [1] (6d versus 7a) is 80 times. In addition, in series [1] (72 h treatment, MTT), the IC50 is 0.05 ± 0.003 µg/mL. Besides, in series [2], the “fluor. max. λ, nm” value came out at 660 nm and the “excitation λ, nm” value came to 530 nm.

`CCCCCCCCCCCCCCCC[n+]1ccc(C=CC=Cc2cc3c4c(c2)CCCN4CCC3)cc1.[Br-]` [Compound 6e, 1-hexadecyl-4-(4-(2,3,6,7-tetrahydro-1H,5H-pyrido[3,2,1-ij]quinolin-9-yl)buta-1,3-dien-1-yl)pyridin-1-ium bromide]: the IC50 in series [1] (72 h treatment, MTT) was determined as 0.4 ± 0.06 µg/mL. The “times more toxic to MH-22A than against non-cancerous Hek-293” value in series [1] (selectivity MH-22A versus Hek-293) came out at 3.75 times. For the same compound, the “times more cytotoxic to MH-22A than against non-cancerous NIH3T3” value in series [1] (selectivity MH-22A versus NIH3T3) is given as “eight”. For the same compound, in series [2], the “Stokes' shift, nm” value is 240 nm; the “fluor. max. λ, nm” value was 760 nm and ~ 760 nm; the “excitation λ, nm” value stood at 530 nm. The second fluorescence maximum in series [2] (EtOH-glycerol mixture, ethanol approximately 50%) is reported as 720 nm. Also, the “fluorescence emission maximum wavelength” value in series [2] (pure glycerol) worked out at 645 nm.

For `C(=C\c1cc2c3c(c1)CCCN3CCC2)/c1cc[n+](CCC[n+]2ccc(/C=C/c3cc4c5c(c3)CCCN5CCC4)cc2)cc1` [Compound 7a], the IC50 in series [1] (72 h) turned out to be 4 ± 0.3 µg/mL. Moreover, in series [2], the “fluor. max. λ, nm” value turned out to be 660 nm and the “excitation λ, nm” value came to 530 nm.

As for `C(C=Cc1cc2c3c(c1)CCCN3CCC2)=Cc1cc[n+](CCC[n+]2ccc(C=CC=Cc3cc4c5c(c3)CCCN5CCC4)cc2)cc1.[Br-].[Br-]` [Compound 7b, 1,1′-(propane-1,3-diyl)bis(4-(4-(2,3,6,7-tetrahydro-1H,5H-pyrido[3,2,1-ij]quinolin-9-yl)buta-1,3-dien-1-yl)pyridin-1-ium) dibromide], in series [1] (72 h treatment, MTT), the IC50 is 5 ± 0.6 µg/mL. In addition, in series [2], the “fluor. max. λ, nm” value was 770 nm and ~ 760 nm; the “excitation λ, nm” value is reported as 530 nm.
